# Test results as given in patent US20090263492A1, “Diagnostic Methods and Genetic Markers for Alzheimer Disease” (priority 2006, published 2009).
# Test system: Mgat3 transcription
# Experiment: qPCR of Mgat3 transcription in PBMC's from AD patients cultured with Aβ and test agent
# Assay type: cell-based, human
# Set-up: key to Relative Activity: relative ratio of Mgat3 transcription in AD/Mgat3 transcription in control cells: Dash (−) indicates minimal effect; (+) indicates a ratio of 1.0-1.5; (++) indicates a ratio of 1.5-2.0; (+++ to ++++) indicates a ratio of 2.0 and above; (+++ to ++++) indicates a ratio of 2.0 and above
# Details: Homo sapiens; curcumins 0.1 uM, PBMC's from AD patients cultured overnight with Aβ, 2 hours incubation, qPCR; read-out: Relative Activity: relative ratio of Mgat3 transcription in AD/Mgat3 transcription in control cells
# Procedure: RNA Isolation and qPCR. RNA was isolated as above from PBMC's (10 million) of each subject, which were cultured overnight with or without Aβ (2 μg/ml); and cDNA was synthesized using the iSCRIPT cDNA Synthesis Kit. The expression levels of the genes of interest were tested by qPCR on a real-time PCR detector and normalized to the levels of the housekeeping gene 36B4 with the following primers: […]
# SYBR Green reactions were carried out with the IQ SYBR Green mix. Reactions were run on a Continuous Fluorescence detector and analyzed. The relative quantities of the gene tested per sample were calculated against 36B4 using the ΔΔC(T) formula as previously described. The results are expressed as log [MGAT (or TLR) RNA (with Aβ)/MGAT (or TLR) RNA (without Aβ)] for each specimen. For evaluation of curcumins or curcumin analogs the above assay was used. Curcumins (0.1 uM) were added to PBMC's from AD patients cultured overnight with ±Aβ as above. After 2 hours of incubation with the curcumin or analog, RNA was isolated and cDNA was synthesized as above. The expression levels of Mgat3 or TLR transcription was quantified and normalized to the levels of housekeeping genes and compared to cells treated with curcumin or analogs with or without Aβ vs. untreated cells. The amount of Mgat3 (or TLR) RNA with Aβ and test agent/Mgat3 (or TLR) RNA withal alone)] for each cell preparation in the presence of test agent was determined. The ratio was used to determine the potency of the agent tested. Potent compounds had elevated ratios (>1.5) and were used to rank the relative activity of each test agent (Table 2).
# Curcumins. […] Crude natural product derived materials (i.e., curcuminoids) enhance phagocytosis of Aβ by macrophages from AD patients in approximately 50% of the cases examined. […] The material was purified to near homogeneity and identified by LCMS as bisdesmethoxycurcumin on the basis of its molecular ion and fragmentation pattern. To verify the biological activity of this minor constituent, bisdesmethoxycurcumin was chemically synthesized and tested in the phagocytosis and transcription assays described above (see Example 4). Compared with curcumin, both the bisdesmethoxycurcumin material isolated by chromatography and the chemically synthesized bisdesmethoxycurcumin material optimally stimulated phagocytosis at 0.1 μM. To determine whether functional improvement would be accompanied by biochemical changes, we tested transcriptional up-regulation of MGA T3 and TLR's in PBMC's from AD patients and controls in the presence of Aβ with bisdesmethoxycurcumin (0.1 μM) in comparison to Aβ alone. […] Thus, curcumins (0.1 uM) were added to PBMC's from AD patients cultured overnight with Aβ as above. After 2 hours of incubation, RNA was isolated and cDNA was synthesized. The expression levels of Mgat3 or TLR transcription was quantified and normalized to the levels of housekeeping genes and compared to cells treated with curcumin or analogs without Aβ. The amount of Mgat3 (or TLR) RNA with test agent and Aβ)/Mgat3 (or TLR) RNA (with Aβ alone)] for each cell preparation in the presence of test agent was determined. The ratio was used to determine the potency of the agent tested. Potent compounds had elevated ratios (>1.5) and were used to rank the relative activity (Table 2).
# Mgat3 and TLR transcription in cells from AD and control patients. We tested by qPCR Mgat3 and/0or TLR transcription in cells from AD patients and compared the results to those obtained from age-matched controls (Table 2). As discussed above, activation or up-regulation of macrophage Mgat3 or TLR's results in many functional outcomes, including the enhancement of […] and removal of Aβ, increased apoptosis, secretion of inflammatory cytokines, and other anti-AD antimicrobial activities. […] Thus, the ratio of Mgat3 or TLR transcription upon Aβ stimulation of AD versus control PBMCs provides an indicator and sensitive method to test the in vitro efficacy of drug candidates. […]
row,SMILES,fold induction at 0.1 µM
1,"O=C(C=Cc1cccc(O)c1)C=C(O)C=Cc1cccc(O)c1 [Compound 5e, 5-Hydroxy-1,7-bis-(3-hydroxy-phenyl)-hepta-1,4,6-trien-3-one]",1 to 1.5
2,"CN(C)c1ccc(C=CC(=O)C=C(O)C=Cc2ccc(N(C)C)cc2)cc1 [Compound 5f, 1,7-Bis-(4-dimethylamino-phenyl)-5-hydroxy-hepta-1,4,6-trien-3-one]",≥ 2
3,"COc1cc(C=CC(=O)C=C(O)C=Cc2ccc(O)c(OC)c2)ccc1O [Compound 5h, 5-Hydroxy-1,7-bis-(4-hydroxy-3-methoxy-phenyl)-hepta-1,4,6-trien-3-one]",1 to 1.5
4,"COc1cc(O)ccc1C=CC(=O)C=C(O)C=Cc1ccc(O)cc1OC [Compound 5i, 5-Hydroxy-1,7-bis-(4-hydroxy-2-methoxy-phenyl)-hepta-1,4,6-trien-3-one]",1.5 to 2
5,"COc1ccccc1C=CC(=O)C=C(O)C=Cc1ccccc1OC [Compound 5l, 5-Hydroxy-1,7-bis-(2-methoxy-phenyl)-hepta-1,4,6-trien-3-one]",≥ 2
6,"O=C(/C=C(O)/C=C/c1ccccc1)/C=C/c1ccccc1 [Compound 6, (1E,4Z,6E)-5-hydroxy-1,7-diphenylhepta-1,4,6-trien-3-one]",1 to 1.5
7,"CC(C)(C)c1ccc(/C=C/C(=O)/C=C(O)/C=C/c2ccc(C(C)(C)C)cc2)cc1 [Compound 10, (1E,4Z,6E)-1,7-bis(4-tert-butylphenyl)-5-hydroxyhepta-1,4,6-trien-3-one]",1 to 1.5

# Same assay, conditions: curcumins 0.1 uM, PBMC's from AD patients cultured overnight with Aβ, 2 hours incubation, qPCR
row,SMILES,Relative Activity: relative ratio of Mgat3 transcription in AD/Mgat3 transcription in control cells
1,"COc1ccc(C=CC(=O)C=C(O)C=Cc2ccc(OC)cc2)cc1 [Compound 5b, 5-Hydroxy-1,7-bis-(4-methoxy-phenyl)-hepta-1,4,6-trien-3-one]",−
2,"CC(=O)Oc1ccc(C=CC(=O)C=C(O)C=Cc2ccc(OC(C)=O)cc2)cc1 [Compound 5c, Aceticacid 4-[7-(4-acetoxy-phenyl)-5-hydroxy-3-oxo-hepta-1,4,6-trienyl]-phenyl ester]",−
3,"CC(C)(C)C(=O)Oc1ccc(C=CC(=O)CC(=O)C=Cc2ccc(OC(=O)C(C)(C)C)cc2)cc1 [Compound 5d, 2,2-Dimethyl-propionic acid 4-{7-[4-(2,2-dimethyl-propionyloxy)-phenyl]-3,5-dioxo-hepta-1,6-dienyl}-phenyl ester]",−
4,"COc1ccc(C=CC(=O)C=C(O)C=Cc2ccc(OC)cc2O)c(O)c1 [Compound 5j, 5-Hydroxy-1,7-bis-(2-hydroxy-4-methoxy-phenyl)-hepta-1,4,6-trien-3-one]",−
5,"O=C(C=Cc1ccc(O)c(Cl)c1)C=C(O)C=Cc1ccc(O)c(Cl)c1 [Compound 5k, 1,7-Bis-(3-chloro-4-hydroxy-phenyl)-5-Hydroxy-hepta-1,4,6-trien-3-one]",−
6,Cc1ccc(/C=C/C(=O)/C=C(O)/C=C/c2ccc(C)cc2)cc1 [Compound 7],++ ((++) indicates a ratio of 1.5-2.0)
7,O=C(/C=C(O)/C=C/c1cccc(F)c1)/C=C/c1cccc(F)c1 [Compound 8],+ ((+) indicates a ratio of 1.0-1.5)
8,CSc1ccc(/C=C/C(=O)/C=C(O)/C=C/c2ccc(SC)cc2)cc1 [Compound 9],++++ ((+++ to ++++) indicates a ratio of 2.0 and above)
